Entries after “also recorded” stand apart in the source; their conditions may differ.
Experiments:
[1] = target: T1, human immunoproteasome β5i (Homo sapiens, UniProt P28062); assay: IC50 against chymotryptic β5i activity of human immunoproteasome (96-well plate, Ac-ANW-AMC); assay type: biochemical; conditions: for IC50: β5i, substrate Ac-ANW-AMC, read-out: IC50 Hu i-20S (Ac-ANW-AMC)
T1 construct: purchased Boston Biochem Inc
Procedure: A 96-well-plate assays were used to determine the IC50s against the chymotryptic β5 activities of the proteasomes. Both human constitutive proteasome and immunoproteasome were purchased from Boston Biochem Inc. 1 μL of 100× compound in DMSO at designated concentrations were spotted at the bottom of the wells. DMSO was used as a control. […] The hydrolysis of the substrate over time in each well was monitored at excitation 360 nm, emission 460 nm for 90 minutes. IC50s were estimated by fitting the velocities of hydrolysis against compound concentrations using PRISM. […] SDS (0.02%) was used as activator, and 0.01% BSA was used in the reaction buffer.

[2] = target: T2, human constitutive proteasome β5c (Homo sapiens, UniProt P28074); assay: IC50 against chymotryptic β5c activity of human constitutive proteasome (96-well plate, Suc-LLVY-AMC); assay type: biochemical; conditions: β5c; substrate Suc-LLVY-AMC; read-out: IC50 Hu c-20S (Suc-LLVY-AMC)
T2 construct: purchased Boston Biochem Inc
Procedure: A 96-well-plate assays were used to determine the IC50s against the chymotryptic β5 activities of the proteasomes. Both human constitutive proteasome and immunoproteasome were purchased from Boston Biochem Inc. 1 μL of 100× compound in DMSO at designated concentrations were spotted at the bottom of the wells. DMSO was used as a control. Final concentrations of the inhibitors were from 100 μM to 0.098 μM. The hydrolysis of the substrate over time in each well was monitored at excitation 360 nm, emission 460 nm for 90 minutes. IC50s were estimated by fitting the velocities of hydrolysis against compound concentrations using PRISM. […] Suc-LLVY-AMC was used for βc at final concentration of 25 μM, and Ac-ANW-AMC for b5i at final concentration of 15 μM. SDS (0.02%) was used as activator, and 0.01% BSA was used in the reaction buffer.
The foregoing features of these AsnEDA encouraged a further round of SAR studies (Table 5) based on varying the carboxylic acid at the ethylenediamine, the N-cap at the Asn, and the side chain of the Asn, based on PKS21004. All compounds listed in the Table 5 were synthesized as described in Examples 6-77. All final compounds were confirmed by NMR and HRMS. IC50s of all compounds against β5i and β5c (Table 5), β1i, β2i, β1c and β2c were determined following a reported method (Lin et al., “N,C-Capped Dipeptides With Selectivity for Mycobacterial Proteasome Over Human Proteasomes: Role of S3 and S1Binding Pockets,” J Am Chem Soc. 135:9968-9971 (2013), which is hereby incorporated by reference in its entirety). […] The [1,1′-biphenyl]-3-carboxamide of PKS21004 was then modified with the following substituents: 4′-fluoro (PKS21026), 4′-cyano (PKS21028), 4-fluoro (PKS21196), 4,3′-difluoro (PKS21195) and 4,2′-difluoro (PKS21187).

Plasmodium falciparum = assay: Growth of Plasmodium falciparum in red blood cells (SYBR Green, 72 hours); assay type: cell-based; conditions: Erythrocyte, P.f. 3D7, growth in red blood cells, read-out: EC50 (nM) (P.f.)
Procedure: Continuous in vitro cultures of Plasmodium falciparum: were maintained in human red blood cells (RBC) diluted to a hematocrit of 5% in RPMI 1640 medium with HEPES and Hypoxanthine and completed with 0.5% Albumax II (Invitrogen), 0.25% sodium bicarbonate, and 0.1 mg/ml gentamicin. Parasites were incubated at 37° C. in a gas mixture of 5% oxygen, 5% carbon dioxide, and 90% nitrogen.
Parasite sensitivity to novel compounds were determined using a SYBR Green (Invitrogen S1046) drug assay protocol. P. falciparum of various clinic stains were cultured with compounds at concentrations in a series of dilution in a clear, sterile 96-well plate for 72 hours. Subsequently, 150 μl of the cultures were transferred to a black 96-well plate and placed in the freezer for red blood cell lysis. The plates were thawed and suspended in a Sybr Green Lysis buffer. GraphPad Prism was used to analyze the raw data collected […]. Drug concentrations were converted to logarithms, normalized, and then curve fitted by non-linear regression to obtain EC50 values.
Plasmodium falciparum: parasites were cultured in human red cells. Drug assays were run in 96 well plates at a total volume of 200 μl. Assays were set up at a starting parasitemia (percent of infected red cells) of 0.5%. Test compounds were plated at concentrations of 2778 nM to 0.4 nM. The test plates were grown under standard low oxygen conditions at 37° C. for 72 hours. At that time the plates were prepared for growth determination, first the plates were frozen and thawed to lyse the red blood cells, 150 μl of the lysed thawed culture was transferred to a black 96 well plate, and mixed in a lysis buffer with SYBR green DNA dye. The fluorescence of each well was recorded in a plate reader with excitation wavelength 490 nm and emission wavelength 530 nm and normalized relative to DMSO control. The EC50s were determined using Prism software.

Pf Gametocytes = assay: Gametocyte killing assay (DilC1(5), flow cytometry); assay type: cell-based; conditions: Plasmodium falciparum; NF54 peg4-tdTomato, 72 hour incubation; read-out: EC50 against Pf Gametocytes
Procedure: Asexual replication of NF54 peg4-tdTomato parasites was eliminated by treating with 50 mM GlcNAc and 20 U/mL Heparin for 3 days. NF54 peg4-tdTomato parasites then were maintained using standard culture techniques. Gametocytes were induced synchronously according to Fivelman et al., “Improved Synchronous Production of Plasmodium Falciparum Gametocytes in Vitro,” Mol Biochemo Parasitol. 154(1):119-123 (2007), which is hereby incorporated by reference in its entirety. Asexual replication was eliminated by treating with 50 mM GlcNAc for 3 days. Gametocyte killing assays were setup on days 5 and 10 in triplicate 96-well format at 1% hematocrit and 2% gametocytemia. Compounds were setup in triplicate and serially diluted 3-fold. In addition, 6 solvent controls (DMSO) were distributed evenly across the plate. Following a 72 hour incubation, Stage III-IV (Day 5-7) and Stage IV-V (Day 10-12), (start the incubation in the afternoon on Day 5 and Day 10, take out plate for assay on Day8 and Day13 afternoon) cultures were stained with 16 nM Hoechst 33342 and 50 nM DilC1(5) for 30 min at 37 C. Using a Cytek DxP12 flow cytometer, gametocytemia was determined by gating for DNA+, hemozoin-high cells and gametocyte viability was inferred based on mitochondrial membrane potential-dependent accumulation of DilC1(5) for 2000-3000 gametocytes (Tanaka et al., “Potent Plasmodium Falciparum Gametocytocidal Activity of Diaminonaphthoquinones, Lead Antimalarial Chemotypes Identified in an Antimalarial Compound Screen,” Antimicrob. Agents Chemother. 2015, 59:1389 (2015), which is hereby incorporated by reference in its entirety). Mean DilC1(5) signal was normalized to solvent control and the overall minimum and used to calculate the EC50 (FIG. 3 and Table 4).

Pf20S β5 = assay: Labeling of Pf20S active subunits by activity probe MV151 in Pf lysates; assay type: biochemical, P. falciparum; conditions: 1 hour with inhibitor, then MV151 (2 μM) 1 hour
Procedure: Pf lysates were incubated with inhibitors at indicated concentrations for 1 hour prior to incubation with MV151 (2 μM) for an additional hour. SDS pages were scanned on a Typhoon fluorescent scanner. […] BTZ was used as a positive control.

CC(C)(C)NC(=O)C[C@H](NC(=O)CCc1ccccc1)C(=O)NCCNC(=O)c1cccc2ccccc12 [PKS3080]
IC50 [1]: 370 nM
IC50 [2]: 1220 nM
EC50 (Plasmodium falciparum): 23 nM

CC(CNC(=O)c1cccc(-c2ccccc2)c1)NC(=O)[C@H](CC(=O)NC(C)(C)C)NC(=O)CCc1ccccc1 (mixture of isomers) [PKS21018]
IC50 [1]: 2350 nM
IC50 [2]: 14600 nM
EC50 (Plasmodium falciparum): 364 nM

CC(C)(C)NC(=O)C[C@H](NC(=O)CCc1ccccc1)C(=O)NCCNC(=O)c1ccc2ccccc2c1 [PKS21025]
improved potency against β5i ([1]; relative to PKS3080): 3 fold
selectivity for β5i over β5c ([1]; β5i over β5c): 26 fold
IC50 [1]: 284 nM
IC50 [2]: 3600 nM
EC50 (Plasmodium falciparum): 320 nM

Cc1cc(C(=O)N[C@@H](CC(=O)NC(C)(C)C)C(=O)NCCNC(=O)c2cccc(-c3cc[nH]n3)c2)no1 [PKS21287]
IC50 [1]: 1150 nM
IC50 [2]: 21100 nM
EC50 (Plasmodium falciparum): 34 nM
EC50 (Pf Gametocytes): 206 nM
labeling of Pf20S β5 by MV151 (Pf20S β5): block labeling; also recorded: dose-dependently inhibited the labeling
